Test results as given in paper PMC6151589, “Identification of Optically Active Pyrimidine Derivatives as Selective 5-HT2C Modulators” (Molecules : A Journal of Synthetic Chemistry and Natural …, 2017).

How the values were obtained:
5-HT3 = biological target: T1, 5-HT3 (Homo sapiens, UniProt P46098); assay: biochemical; design: species or system HEK293 or CHO; competitive radioligand binding on crude membranes, filtration and scintillation counting; details: for Ki: read-out: Ki (nM), 3
T1 construct: gene HTR3A; human recombinant receptor, crude membranes of HEK293 or CHO cells
T1 sequence (P46098 1-478): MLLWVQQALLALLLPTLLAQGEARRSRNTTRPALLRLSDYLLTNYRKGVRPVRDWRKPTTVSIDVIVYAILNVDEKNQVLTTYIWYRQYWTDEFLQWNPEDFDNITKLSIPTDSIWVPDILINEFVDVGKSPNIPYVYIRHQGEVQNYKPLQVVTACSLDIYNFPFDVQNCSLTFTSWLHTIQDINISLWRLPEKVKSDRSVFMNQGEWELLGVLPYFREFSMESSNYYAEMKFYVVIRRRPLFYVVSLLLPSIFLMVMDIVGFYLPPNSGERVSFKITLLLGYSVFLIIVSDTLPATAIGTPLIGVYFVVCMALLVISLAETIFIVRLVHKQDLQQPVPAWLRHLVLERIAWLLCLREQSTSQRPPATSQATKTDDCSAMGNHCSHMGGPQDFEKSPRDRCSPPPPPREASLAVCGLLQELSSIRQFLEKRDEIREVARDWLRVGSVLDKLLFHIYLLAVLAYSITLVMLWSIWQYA
Experimental: Eleven dilutions (5 × assay concentration) of the test and reference compounds (Table S1) were prepared in standard binding buffer (50 mM tris(hydroxymethyl)-aminomethane-HCl (Tris-HCl), 10 mM MgCl2, 1 mM ethylenediaminetetraacetate (EDTA), pH 7.4) by serial dilution: 0.05 nM, 0.5 nM, 1.5 nM, 5 nM, 15 nM, 50 nM, 150 nM, 500 nM, 1.5 μM, 5 μM, and 50 μM. The radioligand (Table S3) was diluted to five times the assay concentration in standard binding buffer. Aliquots ([…]) of the radioligand were dispensed into the wells of a 96-well plate containing […] of standard binding buffer. Triplicate aliquots ([…]) of the test and reference compound dilutions were then added. Finally, crude membrane fractions ([…]) of cells (HEK293 or CHO) expressing human recombinant receptors were dispensed into each well. A total of […] of the reaction mixtures was incubated at room temperature and shielded from light for 1.5 h, and was then harvested by rapid filtration onto Whatman GF/B glass fiber filters presoaked with 0.3% polyethyleneimine, by using a 96-well Brandel harvester (Gaithersburg, MD, USA). Four rapid washes were performed with chilled standard binding buffer (500 mL) to decrease nonspecific binding. Filters were placed in 6 mL scintillation tubes and allowed to dry overnight. The next day, 4-mL of EcoScint scintillation cocktail (National Diagnostics) was added to each tube. The tubes were capped, labeled, and counted by […] scintillation counting. The filter mats were dried, and the scintillant was melted onto the filters, then the radioactivity retained on the filters was counted in a Microbeta scintillation counter. The IC50 values were obtained by using the Prism 4.0 program (GraphPad Software, La Jolla, CA, USA) and were converted into Ki values. Each compound was tested at least in triplicate. With each enantiomer (R)- or (S)-5d and 5e in hand, the optically active pyrimidine derivatives 4d–4e were synthesized following the same reaction sequences (Scheme 3). Finally, compounds 4d and 4e were assessed for their binding affinity to 5-HT2 receptor subtypes by radioligand binding assays. […] A further evaluation of these compounds for other 5-HT receptor subtypes was also performed and is provided in the supplementary data (Table S2). […] Considering the potencies and selectivities of 4, we can conclude that (R,R)-4e would be a viable candidate for a selective 5-HT2C modulator.

5-HT2C [1] = biological target: T2, 5-HT2C (Homo sapiens, UniProt P28335); assay: radioligand displacement, membranes; format: binding
T2 construct: gene HTR2C; human recombinant receptor; crude membrane fractions of transfected cells (CHO-K1; HEK293 or CHO)
T2 sequence (P28335 33-458): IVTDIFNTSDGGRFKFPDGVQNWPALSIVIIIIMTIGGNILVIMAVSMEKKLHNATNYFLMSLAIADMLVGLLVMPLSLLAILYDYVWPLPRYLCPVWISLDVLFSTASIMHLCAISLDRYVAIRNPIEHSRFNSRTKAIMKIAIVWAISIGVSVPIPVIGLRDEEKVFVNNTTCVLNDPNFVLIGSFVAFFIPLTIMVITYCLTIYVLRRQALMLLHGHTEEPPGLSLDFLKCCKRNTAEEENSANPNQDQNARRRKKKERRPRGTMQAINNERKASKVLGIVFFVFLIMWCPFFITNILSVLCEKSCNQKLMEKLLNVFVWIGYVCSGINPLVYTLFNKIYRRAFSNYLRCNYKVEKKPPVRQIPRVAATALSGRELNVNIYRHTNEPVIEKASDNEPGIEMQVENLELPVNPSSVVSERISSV
From the text: radioligand displacement, membranes on 5-HT2C

5-HT2C [2] = biological target: T2, 5-HT2C; assay: [3H]mesulergine displacement, membranes; format: binding; details: pH […] MgCl2, room temperature; reference compound, may stem from the authors' earlier study (ref […])
From the text: [3H]mesulergine displacement, membranes on 5-HT2C

| Structure (SMILES) | inhibition at 10 µM (5-HT3) | Ki (5-HT3) | Ki (5-HT2C [1]) | Ki (5-HT2C [2]) |
| --- | --- | --- | --- | --- |
| C[C@@H]1CNCCN1c1ncc(F)c(O[C@H](C)c2cccc(F)c2)n1 [(R,R)-4d, 5-Fluoro-4-((R)-1-(3-fluorophenyl)ethoxy)-2-((R)-2-methylpiperazin-1-yl)pyrimidine] | 89.4% | 242 nM | 1.2 nM | – |
| C[C@@H]1CNCCN1c1ncc(F)c(O[C@H](C)c2ccc(F)cc2)n1 [(R,R)-4e, 5-Fluoro-4-((R)-1-(4-fluorophenyl)ethoxy)-2-((R)-2-methylpiperazin-1-yl)pyrimidine] | 87.8% | 242 nM | 4 nM | – |
| C[C@H](Oc1nc(N2CCNC[C@H]2C)ncc1F)c1cccc(F)c1 [(S,R)-4d, 5-Fluoro-4-((S)-1-(3-fluorophenyl)ethoxy)-2-((R)-2-methylpiperazin-1-yl)pyrimidine] | 78.6% | 501 nM | 14 nM | – |
| C[C@H](Oc1nc(N2CCNC[C@H]2C)ncc1F)c1ccc(F)cc1 [(S,R)-4e, 5-Fluoro-4-((S)-1-(4-fluorophenyl)ethoxy)-2-((R)-2-methylpiperazin-1-yl)pyrimidine] | 70.1% | 1000 nM | 23 nM | – |
| C[C@H](Cc1cccc(F)c1)Oc1nc(N2CCNC[C@H]2C)ncc1F [compound 3, pyrimidine analogue 3] | 75% | 241 nM | – | 0.7 nM |
